US9340590B2 (priority 2011, dated 2016)
Where two headings read alike, the source gives them in different places. Positions of bridges follow the written chain, without caps; N, C: chain ends. Non-standard residues stand in square brackets, D forms with d. Residues, ends and D or L forms follow the SMILES beside them. Trp(1-Me) = Cn1cc(C[C@H](N)C(=O)O)c2ccccc21; Phe(4-I) = N[C@@H](Cc1ccc(I)cc1)C(=O)O

Key:
Assay in all cases: cell-based
hNav1.7 = hNav1.7 (Homo sapiens, UniProt Q15858); assay type: cell-based; settings: IonWorks Quattro, read-out: IWQ Use Nav1.7
hNav1.5 = hNav1.5 (Homo sapiens, UniProt Q14524); settings: IonWorks Quattro, read-out: IWQ Use Nav1.5
hNav1.3 = hNav1.3 (Homo sapiens, UniProt Q9NY46); settings: IonWorks Quattro, read-out: IWQ Use Nav1.3
Chain of hNav1.3 (Q9NY46 whole entry, looked up): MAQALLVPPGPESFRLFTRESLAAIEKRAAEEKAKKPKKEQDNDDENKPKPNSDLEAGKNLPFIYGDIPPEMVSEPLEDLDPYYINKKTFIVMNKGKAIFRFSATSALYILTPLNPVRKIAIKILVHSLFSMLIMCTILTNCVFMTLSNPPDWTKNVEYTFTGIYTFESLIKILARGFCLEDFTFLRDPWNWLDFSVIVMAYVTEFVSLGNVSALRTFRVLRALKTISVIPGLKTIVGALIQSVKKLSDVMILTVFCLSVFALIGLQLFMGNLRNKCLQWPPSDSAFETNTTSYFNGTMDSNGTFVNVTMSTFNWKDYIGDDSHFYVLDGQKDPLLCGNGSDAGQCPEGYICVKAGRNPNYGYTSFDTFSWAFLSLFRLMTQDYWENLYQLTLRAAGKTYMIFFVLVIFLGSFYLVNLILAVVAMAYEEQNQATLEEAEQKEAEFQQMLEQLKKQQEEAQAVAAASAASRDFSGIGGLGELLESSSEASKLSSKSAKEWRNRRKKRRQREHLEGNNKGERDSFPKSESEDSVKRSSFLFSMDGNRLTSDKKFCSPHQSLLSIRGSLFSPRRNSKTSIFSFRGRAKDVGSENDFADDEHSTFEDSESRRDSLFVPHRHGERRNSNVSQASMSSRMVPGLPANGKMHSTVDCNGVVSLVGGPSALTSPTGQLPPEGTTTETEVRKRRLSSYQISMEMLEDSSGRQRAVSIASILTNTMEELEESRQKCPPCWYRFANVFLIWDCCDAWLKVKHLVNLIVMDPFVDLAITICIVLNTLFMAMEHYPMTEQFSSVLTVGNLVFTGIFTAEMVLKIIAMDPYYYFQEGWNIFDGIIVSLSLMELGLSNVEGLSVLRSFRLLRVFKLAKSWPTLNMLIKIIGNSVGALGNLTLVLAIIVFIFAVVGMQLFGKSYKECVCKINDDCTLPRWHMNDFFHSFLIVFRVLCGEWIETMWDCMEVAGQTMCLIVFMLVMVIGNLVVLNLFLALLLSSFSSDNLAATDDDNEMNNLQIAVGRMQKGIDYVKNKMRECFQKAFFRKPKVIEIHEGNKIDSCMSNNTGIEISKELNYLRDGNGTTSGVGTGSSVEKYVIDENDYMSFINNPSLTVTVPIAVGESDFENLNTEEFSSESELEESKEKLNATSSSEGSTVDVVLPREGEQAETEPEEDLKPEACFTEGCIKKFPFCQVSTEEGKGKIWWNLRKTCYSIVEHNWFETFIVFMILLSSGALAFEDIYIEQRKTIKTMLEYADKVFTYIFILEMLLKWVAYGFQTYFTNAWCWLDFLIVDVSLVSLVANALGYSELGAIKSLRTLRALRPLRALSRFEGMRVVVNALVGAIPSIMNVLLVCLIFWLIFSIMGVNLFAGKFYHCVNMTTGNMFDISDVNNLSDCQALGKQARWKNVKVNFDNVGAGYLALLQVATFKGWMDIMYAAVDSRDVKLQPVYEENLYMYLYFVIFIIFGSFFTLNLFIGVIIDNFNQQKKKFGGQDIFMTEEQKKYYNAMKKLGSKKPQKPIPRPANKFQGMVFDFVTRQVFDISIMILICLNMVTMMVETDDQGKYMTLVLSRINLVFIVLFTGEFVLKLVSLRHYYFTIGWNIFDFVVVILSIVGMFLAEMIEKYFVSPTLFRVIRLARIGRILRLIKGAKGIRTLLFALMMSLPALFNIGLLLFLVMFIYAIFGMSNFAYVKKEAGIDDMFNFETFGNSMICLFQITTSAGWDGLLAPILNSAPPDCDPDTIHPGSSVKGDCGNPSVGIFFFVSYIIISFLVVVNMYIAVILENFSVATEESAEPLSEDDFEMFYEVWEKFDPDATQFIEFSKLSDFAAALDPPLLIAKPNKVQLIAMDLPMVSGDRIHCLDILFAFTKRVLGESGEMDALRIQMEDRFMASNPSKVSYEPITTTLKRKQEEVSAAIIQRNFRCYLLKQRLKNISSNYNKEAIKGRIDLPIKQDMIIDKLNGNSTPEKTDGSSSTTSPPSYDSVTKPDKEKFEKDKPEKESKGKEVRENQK

Chain of hNav1.5 (Q14524 whole entry, looked up): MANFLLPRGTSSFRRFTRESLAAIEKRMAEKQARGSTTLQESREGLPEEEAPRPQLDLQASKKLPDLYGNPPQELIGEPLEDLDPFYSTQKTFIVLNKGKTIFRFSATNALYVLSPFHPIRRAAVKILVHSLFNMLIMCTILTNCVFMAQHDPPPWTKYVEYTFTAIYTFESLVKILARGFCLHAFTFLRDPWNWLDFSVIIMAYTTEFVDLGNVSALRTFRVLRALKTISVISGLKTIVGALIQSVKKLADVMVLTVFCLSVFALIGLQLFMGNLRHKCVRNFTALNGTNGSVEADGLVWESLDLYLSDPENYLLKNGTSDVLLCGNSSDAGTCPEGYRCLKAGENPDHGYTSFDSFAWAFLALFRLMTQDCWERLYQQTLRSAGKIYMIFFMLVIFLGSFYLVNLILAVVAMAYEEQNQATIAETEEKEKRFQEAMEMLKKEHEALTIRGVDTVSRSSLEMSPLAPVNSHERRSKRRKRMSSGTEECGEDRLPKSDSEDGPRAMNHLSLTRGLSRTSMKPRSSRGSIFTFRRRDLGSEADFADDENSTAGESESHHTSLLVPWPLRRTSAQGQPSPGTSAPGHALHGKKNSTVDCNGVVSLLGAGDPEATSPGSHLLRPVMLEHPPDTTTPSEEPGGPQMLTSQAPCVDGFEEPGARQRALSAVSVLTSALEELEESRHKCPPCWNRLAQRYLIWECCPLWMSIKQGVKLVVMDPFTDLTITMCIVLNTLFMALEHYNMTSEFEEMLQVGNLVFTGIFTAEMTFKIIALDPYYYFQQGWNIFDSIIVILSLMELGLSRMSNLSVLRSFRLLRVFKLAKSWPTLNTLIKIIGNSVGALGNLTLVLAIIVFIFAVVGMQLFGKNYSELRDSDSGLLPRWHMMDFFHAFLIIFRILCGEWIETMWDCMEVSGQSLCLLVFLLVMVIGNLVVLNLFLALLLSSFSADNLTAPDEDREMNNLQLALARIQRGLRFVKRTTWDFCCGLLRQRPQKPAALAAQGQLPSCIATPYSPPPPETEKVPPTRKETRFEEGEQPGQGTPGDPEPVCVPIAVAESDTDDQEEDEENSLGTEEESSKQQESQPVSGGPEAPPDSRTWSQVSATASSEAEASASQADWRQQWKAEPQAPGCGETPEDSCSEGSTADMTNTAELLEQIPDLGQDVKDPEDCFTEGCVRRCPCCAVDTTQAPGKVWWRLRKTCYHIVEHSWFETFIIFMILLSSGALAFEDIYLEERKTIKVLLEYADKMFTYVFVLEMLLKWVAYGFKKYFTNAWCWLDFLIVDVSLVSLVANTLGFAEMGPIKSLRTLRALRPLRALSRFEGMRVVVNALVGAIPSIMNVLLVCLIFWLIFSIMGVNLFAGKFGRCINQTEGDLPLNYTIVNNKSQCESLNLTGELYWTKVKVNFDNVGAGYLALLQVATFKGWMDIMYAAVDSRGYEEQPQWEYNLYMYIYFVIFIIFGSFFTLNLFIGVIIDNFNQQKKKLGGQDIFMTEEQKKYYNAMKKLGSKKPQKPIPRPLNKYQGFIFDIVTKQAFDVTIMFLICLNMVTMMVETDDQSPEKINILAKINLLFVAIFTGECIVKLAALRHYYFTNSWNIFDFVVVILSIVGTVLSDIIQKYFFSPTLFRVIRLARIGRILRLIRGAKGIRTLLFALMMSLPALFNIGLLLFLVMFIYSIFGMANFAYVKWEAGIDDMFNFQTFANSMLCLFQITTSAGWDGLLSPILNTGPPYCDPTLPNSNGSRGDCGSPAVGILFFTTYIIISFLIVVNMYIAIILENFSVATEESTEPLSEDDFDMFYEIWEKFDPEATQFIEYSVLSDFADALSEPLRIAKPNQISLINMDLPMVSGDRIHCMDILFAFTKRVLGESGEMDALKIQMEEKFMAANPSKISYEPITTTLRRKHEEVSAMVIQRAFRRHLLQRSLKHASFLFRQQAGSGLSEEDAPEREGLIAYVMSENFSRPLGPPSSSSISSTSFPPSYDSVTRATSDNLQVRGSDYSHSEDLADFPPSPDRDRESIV

`CC[C@H](C)[C@@H]1NC(=O)[C@@H]2CSSC[C@@H]3NC(=O)[C@H](C(C)C)NC(=O)[C@H](CC(C)C)NC(=O)CNC(=O)[C@@H]4CCCN4C(=O)[C@H](CCCNC(=N)N)NC(=O)[C@H](CSSC[C@H](NC(=O)[C@@H](N)CC(=O)O)C(=O)N[C@@H](CC(C)C)C(=O)NCC(=O)N[C@@H](Cc4ccccc4)C(=O)N[C@@H](CCSC)C(=O)N[C@@H](CCCNC(=N)N)C(=O)N[C@@H](CCCCN)C(=O)N2)NC(=O)[C@H](CSSC[C@@H](C(=O)N[C@@H](CCCCN)C(=O)N[C@@H](Cc2ccc(O)cc2)C(=O)N[C@H](C(=O)N[C@@H](Cc2ccccc2)C(N)=O)C(C)C)NC(=O)[C@H](Cc2c[nH]c4ccccc24)NC(=O)[C@H](CCCCN)NC(=O)[C@H](Cc2c[nH]cn2)NC(=O)[C@H]([C@@H](C)O)NC(=O)[C@H](CCCNC(=N)N)NC(=O)[C@H](CO)NC3=O)NC(=O)[C@H](CCCCN)NC(=O)[C@H](CC(=O)O)NC(=O)[C@H](CC(N)=O)NC(=O)[C@H](CC(=O)O)NC(=O)[C@@H]2CCCN2C1=O` [compound 198] (H-DCLGFMRKCIPDNDKCCRPGLVCSRTHKWCKYVF-NH2; disulfide 2-17, 9-23, 16-30) gave an IC50 (hNav1.7; Use) of 229 nM, an IC50 (hNav1.5; Use) of 9750 nM and an IC50 (hNav1.3; Use) of 126 nM.

In the case of `CC[C@H](C)[C@@H]1NC(=O)[C@@H]2CSSC[C@@H]3NC(=O)[C@H](C(C)C)NC(=O)[C@H](CC(C)C)NC(=O)[C@H](Cc4ccccc4)NC(=O)[C@@H]4CCCN4C(=O)[C@H](CCCNC(=N)N)NC(=O)[C@H](CSSC[C@H](NC(=O)[C@@H](N)CC(=O)O)C(=O)N[C@@H](CC(C)C)C(=O)NCC(=O)N[C@@H](Cc4ccccc4)C(=O)N[C@@H](CCSC)C(=O)N[C@@H](CCCNC(=N)N)C(=O)N[C@@H](CCCCN)C(=O)N2)NC(=O)[C@H](CSSC[C@@H](C(=O)N[C@@H](CCCCN)C(=O)N[C@@H](Cc2ccc(O)cc2)C(=O)N[C@H](C(=O)N[C@@H](Cc2ccccc2)C(N)=O)C(C)C)NC(=O)[C@H](Cc2c[nH]c4ccccc24)NC(=O)[C@H](CCCCN)NC(=O)[C@H](Cc2c[nH]cn2)NC(=O)[C@H]([C@@H](C)O)NC(=O)[C@H](CCCNC(=N)N)NC(=O)[C@H](CO)NC3=O)NC(=O)[C@H](CCCCN)NC(=O)[C@H](CC(=O)O)NC(=O)[C@H](CC(N)=O)NC(=O)[C@H](CC(=O)O)NC(=O)[C@@H]2CCCN2C1=O` [compound 199] (H-DCLGFMRKCIPDNDKCCRPFLVCSRTHKWCKYVF-NH2; disulfide 2-17, 9-23, 16-30), the IC50 (hNav1.7; Use) is reported as 154 nM, the IC50 (hNav1.5; Use) is reported as 10800 nM and the IC50 (hNav1.3; Use) is reported as 67 nM.

`CC[C@H](C)[C@@H]1NC(=O)[C@@H]2CSSC[C@@H]3NC(=O)[C@H](C(C)C)NC(=O)[C@H](CC(C)C)NC(=O)[C@H](Cc4ccc(O)cc4)NC(=O)[C@@H]4CCCN4C(=O)[C@H](CCCNC(=N)N)NC(=O)[C@H](CSSC[C@H](NC(=O)[C@@H](N)CC(=O)O)C(=O)N[C@@H](CC(C)C)C(=O)NCC(=O)N[C@@H](Cc4ccccc4)C(=O)N[C@@H](CCSC)C(=O)N[C@@H](CCCNC(=N)N)C(=O)N[C@@H](CCCCN)C(=O)N2)NC(=O)[C@H](CSSC[C@@H](C(=O)N[C@@H](CCCCN)C(=O)N[C@@H](Cc2ccc(O)cc2)C(=O)N[C@H](C(=O)N[C@@H](Cc2ccccc2)C(N)=O)C(C)C)NC(=O)[C@H](Cc2c[nH]c4ccccc24)NC(=O)[C@H](CCCCN)NC(=O)[C@H](Cc2c[nH]cn2)NC(=O)[C@H]([C@@H](C)O)NC(=O)[C@H](CCCNC(=N)N)NC(=O)[C@H](CO)NC3=O)NC(=O)[C@H](CCCCN)NC(=O)[C@H](CC(=O)O)NC(=O)[C@H](CC(N)=O)NC(=O)[C@H](CC(=O)O)NC(=O)[C@@H]2CCCN2C1=O` [compound 200] (H-DCLGFMRKCIPDNDKCCRPYLVCSRTHKWCKYVF-NH2; disulfide 2-17, 9-23, 16-30) was tested, and the IC50 (hNav1.7; Use) was 116 nM, the IC50 (hNav1.5; Use) was 9050 nM and the IC50 (hNav1.3; Use) was 55 nM.

With `CC[C@H](C)[C@@H]1NC(=O)[C@@H]2CSSC[C@@H]3NC(=O)[C@H](C(C)C)NC(=O)[C@H](CC(C)C)NC(=O)[C@H](CC(N)=O)NC(=O)[C@@H]4CCCN4C(=O)[C@H](CCCNC(=N)N)NC(=O)[C@H](CSSC[C@H](NC(=O)[C@@H](N)CC(=O)O)C(=O)N[C@@H](CC(C)C)C(=O)NCC(=O)N[C@@H](Cc4ccccc4)C(=O)N[C@@H](CCSC)C(=O)N[C@@H](CCCNC(=N)N)C(=O)N[C@@H](CCCCN)C(=O)N2)NC(=O)[C@H](CSSC[C@@H](C(=O)N[C@@H](CCCCN)C(=O)N[C@@H](Cc2cn(C)c4ccccc24)C(=O)N[C@H](C(=O)N[C@@H](Cc2ccccc2)C(N)=O)C(C)C)NC(=O)[C@H](Cc2c[nH]c4ccccc24)NC(=O)[C@H](CCCCN)NC(=O)[C@H](Cc2c[nH]cn2)NC(=O)[C@H]([C@@H](C)O)NC(=O)[C@H](CCCNC(=N)N)NC(=O)[C@H](CO)NC3=O)NC(=O)[C@H](CCCCN)NC(=O)[C@H](CC(=O)O)NC(=O)[C@H](CC(N)=O)NC(=O)[C@H](CC(=O)O)NC(=O)[C@@H]2CCCN2C1=O` [compound 246] (H-DCLGFMRKCIPDNDKCCRPNLVCSRTHKWCK[Trp(1-Me)]VF-NH2; disulfide 2-17, 9-23, 16-30) the IC50 (hNav1.7; Table 25, use, […]) was 60 nM, the IC50 (hNav1.5; Table 25, use, […]) was 14400 nM and the IC50 (hNav1.3; Table 25, use, […]) was 30 nM.

`CC[C@H](C)[C@H](NC(=O)[C@H](Cc1ccc(O)cc1)NC(=O)[C@H](CCCCN)NC(=O)[C@@H]1CSSC[C@@H]2NC(=O)[C@H](CCCCN)NC(=O)[C@H](CC(=O)O)NC(=O)[C@H](CC(N)=O)NC(=O)[C@H](CC(=O)O)NC(=O)[C@@H]3CCCN3C(=O)[C@H]([C@@H](C)CC)NC(=O)[C@@H]3CSSC[C@H](NC(=O)[C@H](C(C)C)NC(=O)[C@H](CC(C)C)NC(=O)[C@H](CC(N)=O)NC(=O)[C@@H]4CCCN4C(=O)[C@H](CCCNC(=N)N)NC(=O)[C@H](CSSC[C@H](NC(=O)[C@@H](N)CC(=O)O)C(=O)N[C@@H](CC(C)C)C(=O)NCC(=O)N[C@@H](Cc4ccccc4)C(=O)N[C@@H](CCSC)C(=O)N[C@@H](CCCNC(=N)N)C(=O)N[C@@H](CCCCN)C(=O)N3)NC2=O)C(=O)N[C@@H](CO)C(=O)N[C@@H](CCCNC(=N)N)C(=O)N[C@@H]([C@@H](C)O)C(=O)N[C@@H](Cc2c[nH]cn2)C(=O)N[C@@H](CCCCN)C(=O)N[C@@H](Cc2c[nH]c3ccccc23)C(=O)N1)C(=O)N[C@@H](Cc1ccccc1)C(N)=O` [compound 248] (H-DCLGFMRKCIPDNDKCCRPNLVCSRTHKWCKYIF-NH2; disulfide 2-17, 9-23, 16-30) gave an IC50 (hNav1.7; Table 26, use, […]) of 150 nM, an IC50 (hNav1.5; Table 26, use, […]) of 6890 nM and an IC50 (hNav1.3; Table 26, use, […]) of 90 nM.

Compound `CC[C@H](C)[C@@H]1NC(=O)[C@@H]2CSSC[C@@H]3NC(=O)[C@H](C(C)C)NC(=O)[C@H](CC(C)C)NC(=O)[C@H](CC(N)=O)NC(=O)[C@@H]4CCCN4C(=O)[C@H](CCCNC(=N)N)NC(=O)[C@H](CSSC[C@H](NC(=O)[C@@H](N)CC(=O)O)C(=O)N[C@@H](CC(C)C)C(=O)NCC(=O)N[C@@H](Cc4ccccc4)C(=O)N[C@@H](CCSC)C(=O)N[C@@H](CCCNC(=N)N)C(=O)N[C@@H](CCCCN)C(=O)N2)NC(=O)[C@H](CSSC[C@@H](C(=O)N[C@@H](CCCCN)C(=O)N[C@@H](Cc2ccc(O)cc2)C(=O)N[C@@H](Cc2ccc(I)cc2)C(=O)N[C@@H](Cc2ccccc2)C(N)=O)NC(=O)[C@H](Cc2c[nH]c4ccccc24)NC(=O)[C@H](CCCCN)NC(=O)[C@H](Cc2c[nH]cn2)NC(=O)[C@H]([C@@H](C)O)NC(=O)[C@H](CCCNC(=N)N)NC(=O)[C@H](CO)NC3=O)NC(=O)[C@H](CCCCN)NC(=O)[C@H](CC(=O)O)NC(=O)[C@H](CC(N)=O)NC(=O)[C@H](CC(=O)O)NC(=O)[C@@H]2CCCN2C1=O` [compound 249] (H-DCLGFMRKCIPDNDKCCRPNLVCSRTHKWCKY[Phe(4-I)]F-NH2; disulfide 2-17, 9-23, 16-30) has an IC50 (hNav1.7; Table 26, use, […]) of 90 nM, an IC50 (hNav1.5; Table 26, use, […]) of 7780 nM and an IC50 (hNav1.3; Table 26, use, […]) of 60 nM.

With `CC[C@H](C)[C@@H]1NC(=O)[C@@H]2CSSC[C@@H]3NC(=O)[C@H](C(C)C)NC(=O)[C@H](CC(C)C)NC(=O)[C@H](CC(N)=O)NC(=O)[C@@H]4CCCN4C(=O)[C@H](CCCNC(=N)N)NC(=O)[C@H](CSSC[C@H](NC(=O)[C@@H](N)CC(=O)O)C(=O)N[C@@H](CC(C)C)C(=O)NCC(=O)N[C@@H](Cc4ccccc4)C(=O)N[C@@H](CCSC)C(=O)N[C@@H](CCCNC(=N)N)C(=O)N[C@@H](CCCCN)C(=O)N2)NC(=O)[C@H](CSSC[C@@H](C(=O)N[C@@H](CCCCN)C(=O)N[C@@H](Cc2ccc(O)cc2)C(=O)N[C@@H](Cc2cn(C)c4ccccc24)C(=O)N[C@@H](Cc2ccccc2)C(N)=O)NC(=O)[C@H](Cc2c[nH]c4ccccc24)NC(=O)[C@H](CCCCN)NC(=O)[C@H](Cc2c[nH]cn2)NC(=O)[C@H]([C@@H](C)O)NC(=O)[C@H](CCCNC(=N)N)NC(=O)[C@H](CO)NC3=O)NC(=O)[C@H](CCCCN)NC(=O)[C@H](CC(=O)O)NC(=O)[C@H](CC(N)=O)NC(=O)[C@H](CC(=O)O)NC(=O)[C@@H]2CCCN2C1=O` [compound 250] (H-DCLGFMRKCIPDNDKCCRPNLVCSRTHKWCKY[Trp(1-Me)]F-NH2; disulfide 2-17, 9-23, 16-30) the IC50 (hNav1.7; Table 26, use, […]) was 90 nM, the IC50 (hNav1.5; Table 26, use, […]) was 5350 nM and the IC50 (hNav1.3; Table 26, use, […]) was 70 nM.
